These results are taken from article PMC8011931, “Identification, Structure–Activity Relationship, and Biological Characterization of 2,3,4,5-Tetrahydro-1H-pyrido[4,3-b]indoles as a Novel Class of CFTR Potentiators” (Journal of Medicinal Chemistry, 2020).

Data set [1] in a line: Lung tissue distribution after a single oral dose to rats. Type of data set: in vivo. As to conditions: Sprague-Dawley, rat, p.o., 10 mg/kg. How it is done:
Taking into account both the encouraging results in rescuing the gating defect in mutant CFTR in both primary and secondary biological assays, and the promising in vivo PK profile, we quantified the amount of compound 39 in rat lung tissue, the main target organ for CF treatment. The lung tissue distribution of potentiator 39 was investigated following administration of a single oral dose of 10 mg/kg to Sprague–Dawley rats. Supported by the data obtained in the pharmacokinetic study after oral administration, two time points (2 and 4 h) were selected for collecting plasma and lung tissue samples. The mean concentration vs. time profiles of compound 39 in plasma and lung tissue are reported in Figure S2 (see the Supporting Information).
Three animals per dose and timing were treated. Compound 39 was dissolved in PEG400/Tween80/saline solution at 10/10/80% in volume and administered orally at a dose of 10 mg/kg. After 120 and 240 min, rats were sacrificed and lungs were immediately dissected, frozen on dry ice, and stored at −80 °C until analysis. Lung samples were homogenized in RIPA buffer (150 mM NaCl, 1.0% Triton X-100, 0.5% sodium deoxycholate, 0.1% sodium dodecyl sulfate, 50 mM Tris, and pH 8.0) and then split into two aliquots kept at −80 °C until analysis. An aliquot was used for compound lung-level evaluations. The second aliquot was kept for protein content evaluation using the bicinchoninic acid assay (Thermo Scientific, Rockford, IL, USA).
Plasma samples were centrifuged at 21,100g for 15 min at 4 °C, while homogenized lung samples were vigorously whirled. An aliquot of each sample was extracted (1:3) with cold CH3CN containing 200 nM of an appropriate internal standard being a close analogue of the parent compound. A calibration curve was prepared in both blank mouse plasma and naïve lung homogenate over a 1 nM to 10 μM range. Three quality controls were prepared by spiking the parent compound in both blank mouse plasma and naïve lung homogenate to 20, 200, and 2000 nM as final concentrations. The calibrators and quality controls were extracted (1:3) with the same extraction solution as the plasma and lung samples. The plasma and lung samples, the calibrators, and quality controls were centrifuged at 3270g for 15 min at 4 °C. The supernatants were further diluted (1:1) with H2O and analyzed by LC/MS–MS on a Waters ACQUITY UPLC/MS TQD system consisting of a TQD mass spectrometer equipped with an electrospray ionization interface and a photodiode array eλ detector. Electrospray ionization was applied in the positive mode. […] All samples (plasma and lung samples, calibrators, and quality controls) were quantified by MRM peak area response factor in order to determine the levels of the parent compound in plasma and lung. […]

In data set [2] the target is F508del-CFTR (Homo sapiens, UniProt P13569, DEL508-508). The data set can be described thus: TEER/PD measurements on primary HBE cells from an F508del/F508del CF patient, 24 h co-incubation with corrector. Type of data set: cell-based. Details: primary HBE cells from an F508del/F508del CF patient; endogenous in cells; host or cells: primary human bronchial epithelial cells, F508del/F508del CF patient. As to conditions: 39 0.5 μM with ARN23765 10 nM. On the procedure: A similar combination study was conducted on primary HBE cells from an F508del/F508del CF patient. The effect of the compound was assessed with the transepithelial electrical resistance and potential difference (TEER/PD) technique.[41] Epithelia were treated for 24 h with a vehicle, a corrector ARN23765 alone (10 nM), or ARN23765 (10 nM) plus the potentiator 39 (0.5 μM). TEER and PD values were taken at resting, after the addition of apical amiloride, after maximal stimulation of F508del-CFTR activity (with forskolin plus genistein), and after blocking with PPQ-102. For each epithelium, we measured the difference in the short-circuit current, Ieq (calculated from the TEER and PD values), before and after blocking with PPQ-102 (ΔIeq). The results obtained on primary epithelia confirmed that the rescue of CFTR activity by the corrector ARN23765 was not affected by coincubation with the novel potentiator 39 (Figure 7B).
F508del-CFTR, sequence (P13569 with tags, fused parts or gaps DEL508-508): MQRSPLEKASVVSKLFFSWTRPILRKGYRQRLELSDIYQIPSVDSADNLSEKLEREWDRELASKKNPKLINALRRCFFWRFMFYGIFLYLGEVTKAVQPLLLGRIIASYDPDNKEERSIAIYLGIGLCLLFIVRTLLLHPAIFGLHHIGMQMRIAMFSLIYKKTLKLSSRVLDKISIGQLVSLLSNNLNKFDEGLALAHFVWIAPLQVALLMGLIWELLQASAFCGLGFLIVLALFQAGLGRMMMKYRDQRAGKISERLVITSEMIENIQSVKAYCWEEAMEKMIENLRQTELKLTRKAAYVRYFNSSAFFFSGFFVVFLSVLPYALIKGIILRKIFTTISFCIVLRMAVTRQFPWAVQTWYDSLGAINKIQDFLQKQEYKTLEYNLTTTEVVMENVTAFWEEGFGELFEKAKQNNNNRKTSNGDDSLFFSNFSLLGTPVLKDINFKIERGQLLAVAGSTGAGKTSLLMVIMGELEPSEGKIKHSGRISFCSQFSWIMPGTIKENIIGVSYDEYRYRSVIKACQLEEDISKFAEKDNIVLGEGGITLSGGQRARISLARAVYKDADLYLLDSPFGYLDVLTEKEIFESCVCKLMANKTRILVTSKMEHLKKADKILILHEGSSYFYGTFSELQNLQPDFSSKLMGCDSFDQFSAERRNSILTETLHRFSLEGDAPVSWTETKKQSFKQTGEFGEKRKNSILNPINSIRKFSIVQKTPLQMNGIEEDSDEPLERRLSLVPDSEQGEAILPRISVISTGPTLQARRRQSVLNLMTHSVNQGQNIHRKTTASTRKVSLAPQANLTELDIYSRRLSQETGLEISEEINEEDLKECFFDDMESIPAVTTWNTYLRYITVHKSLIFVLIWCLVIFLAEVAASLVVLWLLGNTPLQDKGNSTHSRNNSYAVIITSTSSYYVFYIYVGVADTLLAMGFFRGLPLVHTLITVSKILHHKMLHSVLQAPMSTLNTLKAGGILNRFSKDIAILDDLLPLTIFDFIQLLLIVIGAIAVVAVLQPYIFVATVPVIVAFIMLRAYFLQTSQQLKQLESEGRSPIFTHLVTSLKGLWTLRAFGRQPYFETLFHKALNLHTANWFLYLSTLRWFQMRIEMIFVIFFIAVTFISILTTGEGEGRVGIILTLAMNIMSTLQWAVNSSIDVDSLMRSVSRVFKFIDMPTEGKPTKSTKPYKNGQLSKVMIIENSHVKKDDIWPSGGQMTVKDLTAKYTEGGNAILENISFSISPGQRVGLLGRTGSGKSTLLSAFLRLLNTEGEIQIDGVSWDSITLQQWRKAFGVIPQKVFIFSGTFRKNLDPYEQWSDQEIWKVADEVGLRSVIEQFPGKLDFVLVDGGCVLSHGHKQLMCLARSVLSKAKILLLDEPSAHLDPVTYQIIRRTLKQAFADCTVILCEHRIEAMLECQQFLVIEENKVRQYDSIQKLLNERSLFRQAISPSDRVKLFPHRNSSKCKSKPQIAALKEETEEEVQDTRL
Primary bronchial epithelial cells were cultured as previously described.[58] In brief, epithelial cells were cultured in a serum-free medium (LHC9 mixed with RPMI 1640, 1:1) supplemented with hormones and supplements to support cell number amplification. […] Differentiation of cells to form a tight epithelium was monitored by measuring transepithelial electrical resistance and potential difference with an epithelial voltohmmeter (EVOM1, World Precision Instruments). […]

[3] abbreviates: lung, read-out: concentration in the lungs.

Like-named read-outs stand apart in the source and are kept apart here.

For the compound `Cc1ccc(F)c2[nH]c3c(c12)CN(C(=O)c1cc(C(F)(F)F)[nH]n1)[C@H](C)C3` [Compound 39, (R)-(6-Fluoro-3,9-dimethyl-1,3,4,5-tetrahydro-2H-pyrido[4,3-b]indol-2-yl)-(5-(trifluoromethyl)-1H-pyrazol-3-yl)methanone], the concentration at 2 h was found to be 4500 ng/g in data set [1] (setting [3]) and 1030 ng/mL in data set [1] (plasma, read-out: plasma level). Also, the concentration at 4 h is 2200 ng/g in data set [1] (setting [3]) and 675 ng/mL in data set [1] (plasma, read-out: plasma level). The “effect on rescue of CFTR activity by the corrector ARN23765 (ΔIeq)” value in data set [2] is reported as “not affected”.
